# Test results from patent US6967244B1 (priority 1988, dated 2005).
# Entries after “also recorded” stand apart in the source; their conditions may differ. Like-named read-outs stand apart in the source and are kept apart here.
# Legend:
# [1] = molecular target: T1, nAChR formed after the injection of alpha2 and beta2 mRNAs (Rattus norvegicus, UniProt P12389+P12390); assay type: cell-based
# T1 construct: only the HYP16 clone contains an open reading frame for the entire alpha2 protein; expressed in transfected cells; host or cells: Xenopus oocytes injected with in vitro transcribed mRNA
# T1 sequence (P12390 25-500): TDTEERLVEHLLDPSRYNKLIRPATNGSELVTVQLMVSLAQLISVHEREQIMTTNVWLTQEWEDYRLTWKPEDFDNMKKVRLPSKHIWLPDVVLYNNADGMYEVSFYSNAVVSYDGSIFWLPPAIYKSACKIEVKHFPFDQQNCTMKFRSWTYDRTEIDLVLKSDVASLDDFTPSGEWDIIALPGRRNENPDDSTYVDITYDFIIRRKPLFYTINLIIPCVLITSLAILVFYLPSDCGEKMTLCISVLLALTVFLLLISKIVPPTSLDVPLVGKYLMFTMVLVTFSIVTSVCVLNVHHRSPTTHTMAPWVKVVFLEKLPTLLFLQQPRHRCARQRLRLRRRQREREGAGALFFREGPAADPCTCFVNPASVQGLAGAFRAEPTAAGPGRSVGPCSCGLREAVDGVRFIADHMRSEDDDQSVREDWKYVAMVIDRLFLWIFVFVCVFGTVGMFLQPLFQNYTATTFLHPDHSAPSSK
# T1 sequence (P12389 28-511): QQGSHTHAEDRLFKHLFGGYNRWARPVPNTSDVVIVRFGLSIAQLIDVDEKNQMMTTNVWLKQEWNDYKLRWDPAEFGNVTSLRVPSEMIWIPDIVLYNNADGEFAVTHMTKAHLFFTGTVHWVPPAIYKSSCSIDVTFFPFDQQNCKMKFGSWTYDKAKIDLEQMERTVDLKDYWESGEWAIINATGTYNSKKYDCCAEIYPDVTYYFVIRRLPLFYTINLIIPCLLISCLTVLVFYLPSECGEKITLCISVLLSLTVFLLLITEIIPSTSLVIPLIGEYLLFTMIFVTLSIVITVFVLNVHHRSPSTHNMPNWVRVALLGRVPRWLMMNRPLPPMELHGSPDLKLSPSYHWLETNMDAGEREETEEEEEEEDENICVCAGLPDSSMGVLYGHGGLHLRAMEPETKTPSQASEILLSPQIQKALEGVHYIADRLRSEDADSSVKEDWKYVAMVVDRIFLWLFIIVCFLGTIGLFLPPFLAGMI
# Description: (§1) Mature Xenopus laevis (Xenopus I, Madison, Wis.) were used as the source of oocytes. Oocytes were treated with 1 mg/ml type II collagenase (Sigma Chemical Co., St. Louis, Mo.) for two hours at room temperature. The ovarian epithelium and follicle cells were then removed by manual dissection. Each oocyte was injected with 0.5 to 5 ng of RNA transcribed and capped with diguanosine triphosphate in vitro, in a 50 nl volume of water. Injected oocytes were incubated in Barth's saline at 20° C. prior to electrophysiological recordings.
# (§2) Recordings were obtained from oocytes placed in a groove at the base of a narrow perspex chamber of 0.5 ml volume. Oocytes were perfused at up to 40 ml/min. with a control solution that consisted of 10 mM HEPES (pH 7.2), 115 mM NaCl, 1.8 mM CaCl2 2.5 mM KCl, and […] atropine. Then oocytes were perfused with agonists or antagonists (added to the control perfusing solution), followed by a wash with control solution. Voltage recordings were made with the bridge circuit of the Dagan 8500 voltage clamp unit on oocytes injected 2–7 days previously. The recordings were obtained at room temperature (20–25° C.) with micropipettes filled with 3M KCl. A resting potential more negative than −30 mV was required for inclusion of a particular oocyte in these studies.
# The PCX49 clone is derived from the beta2 gene and is believed to encode a non-agonist-binding subunit. (Boulter, et al., 1987; Deneris, et al., 1988). […] We tested whether oocytes injected with either alpha2 (n=22) or beta2 (n=21) mRNA alone would produce a depolarizing response to ACh.
# [2] = molecular target: T2, receptor from mouse muscle alpha1, gamma, delta and beta2 mRNAs (Mus musculus, UniProt P02716+P04756+P04760); assay type: cell-based, mouse/rat
# T2 construct: expressed in transfected cells; host or cells: Xenopus laevis oocytes injected with in vitro transcribed capped RNA
# T2 sequence (P04760 23-519): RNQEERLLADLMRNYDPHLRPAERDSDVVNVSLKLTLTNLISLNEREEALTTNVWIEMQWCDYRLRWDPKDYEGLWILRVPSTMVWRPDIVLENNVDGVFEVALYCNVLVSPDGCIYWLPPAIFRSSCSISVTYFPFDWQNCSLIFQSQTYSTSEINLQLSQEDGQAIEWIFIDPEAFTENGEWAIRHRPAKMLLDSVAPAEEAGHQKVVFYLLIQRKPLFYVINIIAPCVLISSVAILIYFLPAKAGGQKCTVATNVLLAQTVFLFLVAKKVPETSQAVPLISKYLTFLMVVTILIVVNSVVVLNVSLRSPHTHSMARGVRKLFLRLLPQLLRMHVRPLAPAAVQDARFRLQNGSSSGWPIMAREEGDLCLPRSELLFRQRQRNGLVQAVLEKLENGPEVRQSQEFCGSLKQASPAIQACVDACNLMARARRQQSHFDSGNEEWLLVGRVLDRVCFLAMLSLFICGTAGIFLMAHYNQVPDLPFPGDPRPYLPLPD
# T2 sequence (P12390 25-500, further chain): as the sequence (P12390 25-500) above
# T2 sequence (P04756 21-457): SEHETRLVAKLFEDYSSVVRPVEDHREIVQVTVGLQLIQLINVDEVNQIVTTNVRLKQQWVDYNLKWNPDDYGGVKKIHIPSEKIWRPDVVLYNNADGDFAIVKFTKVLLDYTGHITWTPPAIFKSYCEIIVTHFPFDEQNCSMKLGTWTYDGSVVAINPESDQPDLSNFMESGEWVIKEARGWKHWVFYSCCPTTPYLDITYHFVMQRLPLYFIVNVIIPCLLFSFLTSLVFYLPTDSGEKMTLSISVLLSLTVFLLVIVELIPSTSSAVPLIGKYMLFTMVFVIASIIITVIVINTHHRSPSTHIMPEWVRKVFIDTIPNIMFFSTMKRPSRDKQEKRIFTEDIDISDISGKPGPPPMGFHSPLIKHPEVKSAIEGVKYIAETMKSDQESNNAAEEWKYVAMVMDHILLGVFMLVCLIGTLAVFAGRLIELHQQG
# T2 sequence (P02716 25-520): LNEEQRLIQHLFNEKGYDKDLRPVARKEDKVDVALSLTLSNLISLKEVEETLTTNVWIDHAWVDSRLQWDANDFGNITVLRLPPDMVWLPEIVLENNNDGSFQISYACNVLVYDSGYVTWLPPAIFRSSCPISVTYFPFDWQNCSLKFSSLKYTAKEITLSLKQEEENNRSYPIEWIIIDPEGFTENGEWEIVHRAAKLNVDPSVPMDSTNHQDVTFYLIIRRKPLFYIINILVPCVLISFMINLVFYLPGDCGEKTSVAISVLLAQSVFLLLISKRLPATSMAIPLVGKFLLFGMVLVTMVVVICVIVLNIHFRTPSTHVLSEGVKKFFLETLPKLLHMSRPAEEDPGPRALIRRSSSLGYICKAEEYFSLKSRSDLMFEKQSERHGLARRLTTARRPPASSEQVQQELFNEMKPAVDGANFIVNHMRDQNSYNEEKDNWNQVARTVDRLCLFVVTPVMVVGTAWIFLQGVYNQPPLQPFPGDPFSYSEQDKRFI
# Description: (§3) To examine this hypothesis, a test was made to determine whether the beta2 subunit could substitute for one of the mouse muscle receptor subunits. This was done by injecting into Xenopus oocytes various combinations of mRNA encoding the beta2 subunit and the muscle receptor subunits (α1, β1, […], and δ).
# as §1, §2
# Experiment 1: Oocytes taken from the same animal were injected at the same time with equivalent amounts of the indicated mRNA combinations. […] Values presented are means±S.E. (n=6).
# Values, presented are means±S.E. (n=5). The complete set of mouse muscle mRNAs were not tested in this experiment.
# [3] = molecular target: T3, alpha3 + beta2 neuronal nicotinic acetylcholine receptor (Rattus norvegicus, UniProt P04757+P12390); assay type: cell-based
# T3 construct: a complete signal peptide and the entire mature protein; expressed in transfected cells; host or cells: Xenopus laevis oocytes injected with in vitro transcribed capped RNA
# T3 sequence (P12390 25-500): as the sequence (P12390 25-500) above
# T3 sequence (P04757 26-499): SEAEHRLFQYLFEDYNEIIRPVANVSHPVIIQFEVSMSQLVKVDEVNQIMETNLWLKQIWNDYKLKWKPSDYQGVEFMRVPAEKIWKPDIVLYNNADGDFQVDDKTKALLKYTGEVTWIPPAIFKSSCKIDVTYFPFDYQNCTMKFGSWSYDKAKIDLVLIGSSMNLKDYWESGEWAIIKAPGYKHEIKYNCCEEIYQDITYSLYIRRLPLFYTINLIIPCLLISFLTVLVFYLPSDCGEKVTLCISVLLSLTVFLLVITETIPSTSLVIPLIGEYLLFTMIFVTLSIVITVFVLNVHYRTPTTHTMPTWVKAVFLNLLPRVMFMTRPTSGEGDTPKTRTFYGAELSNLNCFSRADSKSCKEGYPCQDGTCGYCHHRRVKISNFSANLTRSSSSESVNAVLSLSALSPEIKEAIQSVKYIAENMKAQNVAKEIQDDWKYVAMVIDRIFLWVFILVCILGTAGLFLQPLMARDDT
# [4] = molecular target: T4, alpha4 + beta2 neuronal nicotinic acetylcholine receptor (Rattus norvegicus, UniProt P09483+P12390); assay type: cell-based
# T4 construct: linker-coded start (ATG and a few residues from a synthetic EcoRI/HindIII linker) (N); expressed in transfected cells; host or cells: Xenopus laevis oocytes injected with in vitro transcribed capped RNA
# T4 sequence (P12390 25-500): as the sequence (P12390 25-500) above
# T4 sequence (P09483 31-630): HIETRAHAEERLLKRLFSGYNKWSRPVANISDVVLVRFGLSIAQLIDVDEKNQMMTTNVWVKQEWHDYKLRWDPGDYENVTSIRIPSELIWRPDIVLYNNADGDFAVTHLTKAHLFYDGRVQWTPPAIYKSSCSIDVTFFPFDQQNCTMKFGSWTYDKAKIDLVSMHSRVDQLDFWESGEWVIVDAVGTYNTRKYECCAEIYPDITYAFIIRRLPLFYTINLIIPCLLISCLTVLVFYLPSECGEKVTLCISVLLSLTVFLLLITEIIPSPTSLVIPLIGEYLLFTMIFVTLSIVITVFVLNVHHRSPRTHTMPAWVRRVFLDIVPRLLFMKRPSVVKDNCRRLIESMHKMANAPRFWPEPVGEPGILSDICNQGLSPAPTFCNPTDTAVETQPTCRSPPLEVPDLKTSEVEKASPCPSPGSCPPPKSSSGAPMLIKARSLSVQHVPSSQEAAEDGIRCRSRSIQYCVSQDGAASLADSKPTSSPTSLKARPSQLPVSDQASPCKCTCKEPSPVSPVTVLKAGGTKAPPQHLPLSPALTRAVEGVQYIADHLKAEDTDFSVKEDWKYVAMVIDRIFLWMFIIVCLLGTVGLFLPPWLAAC
# [5] = molecular target: mouse muscle nicotinic acetylcholine receptor α1β1γδ (Mus musculus, UniProt P02716+P04756+P04760); assay type: cell-based
# mouse muscle nicotinic acetylcholine receptor α1β1γδ, sequence (P04760 23-519): as the sequence (P04760 23-519) above
# mouse muscle nicotinic acetylcholine receptor α1β1γδ, sequence (P09690 24-501, further chain): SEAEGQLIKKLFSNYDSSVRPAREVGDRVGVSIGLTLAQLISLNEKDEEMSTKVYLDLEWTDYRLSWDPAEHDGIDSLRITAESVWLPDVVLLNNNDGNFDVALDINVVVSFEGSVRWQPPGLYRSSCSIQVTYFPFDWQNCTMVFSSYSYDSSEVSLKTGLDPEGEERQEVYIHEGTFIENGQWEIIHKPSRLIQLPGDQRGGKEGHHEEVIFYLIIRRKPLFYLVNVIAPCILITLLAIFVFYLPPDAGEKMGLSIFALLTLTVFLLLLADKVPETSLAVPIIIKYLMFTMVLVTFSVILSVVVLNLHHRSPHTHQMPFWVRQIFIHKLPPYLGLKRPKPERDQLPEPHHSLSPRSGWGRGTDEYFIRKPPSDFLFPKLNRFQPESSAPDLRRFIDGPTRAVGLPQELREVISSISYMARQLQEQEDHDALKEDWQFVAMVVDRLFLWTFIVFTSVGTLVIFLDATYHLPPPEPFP
# mouse muscle nicotinic acetylcholine receptor α1β1γδ, sequence (P02716 25-520): as the sequence (P02716 25-520) above
# mouse muscle nicotinic acetylcholine receptor α1β1γδ, sequence (P04756 21-457): as the sequence (P04756 21-457) above
# Description: as §3, §1
# as §2, with “The recordings were obtained at room temperature (20–25° C.) with micropipettes filled with 3M KCl. A resting potential more negative than −30 mV was required for inclusion of a particular oocyte in these studies.” left out
# [6] = molecular target: T5, PC12 cell receptor (Rattus norvegicus, UniProt P04757); details: cited from earlier work
# T5 construct: endogenous in cells; host or cells: PC12 (rat pheochromocytoma) cells
# T5 sequence (P04757 26-499): as the sequence (P04757 26-499) above
compound,measurement,setting,value
COc1cc2c3cc1Oc1cc(ccc1O)C[C@@H]1c4c(cc(OC)c(O)c4Oc4ccc(cc4)C[C@@H]3N(C)CC2)CC[N+]1(C)C [d-tubocurarine],Blockade of the acetylcholine response by antagonist or toxin,[1],could be blocked
same,Δ (mV) Agonist + Antagonist,"[1]; Ach 5 μM + antagonist 100 μM, n=3",+2.0 ± 0.4 mV
same,Block of depolarizations,"[2]; alpha1, beta2, gamma, delta mRNAs, 100 mM d-tubocurarine",blocked
C[N+](C)(C)CCCCCC[N+](C)(C)C [hexamethonium],Blockade of the acetylcholine response by antagonist or toxin,[1],could be blocked
same,Δ (mV) Agonist + Antagonist,"[1]; Ach 1 μM + antagonist 100 μM, n=4",+0.4 ± 0.4 mV
CN1CCCC1c1cccnc1 (centres unmarked) [nicotine],Depolarizing response to nicotine,[3],strong and reproducible membrane depolarizations; also recorded: depolarizing responses
same,Depolarizing response to nicotine,[1],strong and reproducible depolarizing responses; also recorded: elicited a depolarizing response
same,Depolarizing response to nicotine,[4],strong and reproducible membrane depolarizations; also recorded: depolarizing responses
same,Depolarizations elicited by nicotine,[2],depolarizations could be elicited
α-bungarotoxin,Block of the receptor by toxin,[5],blocked
same,Functional blockade of the acetylcholine response by toxin,[3],neither of these receptors are functionally blocked; also recorded: resistant
same,"Δ, mV After Toxin",[3],24.8 ± 3.3 mV
same,"Δ, mV After Toxin",[1],+32 ± 2 mV
same,Functional blockade of the acetylcholine response by toxin,[4],resistant
same,"Δ, mV After Toxin",[4],32.7 ± 6.4 mV
same,Functional block of the receptor by toxin,[6],neither of these receptors are functionally blocked
same,Block of the response to acetylcholine,[2],completely blocked
